# Measured values reported in patent US20240424134A1, “PEPTIDE HAVING INDEPENDENTLY STABILIZED HYDROPHOBIC ALPHA HELIX, PEPTIDE COMPLEX COMPRISING SAME AND USES THEREOF” (UIF (University Industry Foundation), Yonsei University, priority 2022, published 2024).
# Entries after “also recorded” stand apart in the source; their conditions may differ. Non-standard residues stand in square brackets, D forms with d. Primed or numbered codes have the meaning given here. No end group written: not given here. PEG8′ = not defined here; Aib = CC(C)(N)C(=O)O
# Key:
# Format in all cases: physicochemical
# [1] = CD (circular dichroism) spectroscopy of α-helix structure; conditions: for θ222 nm/θ208 nm ratio: Table 11, peptide complexes of Examples 37-97; for [6]222/[θ]208 ratio: before magnetic field (CD), 20 μM in distilled water
# Experimental: To evaluate the structures of a linear plasmid DNA and peptides, CD spectra were analyzed using a Chirascan CD spectrometer (Applied Photophysics, UK). […] The final concentration of the linear plasmid DNA was 30 ng/μL. All the samples were dissolved in H2O. For the formation of the artificial chromosome, a mixture of the peptide and the DNA was incubated for 12 days or longer. Scanning was performed using a 2-mm path-length cuvette. Each scan was repeated three times and averaged. MRE (mean residue ellipticity) was calculated based on the number of amino acid residues.
# CD (circular dichroism) spectroscopy was performed as follows.
# The CD spectra were analyzed using a Chirascan CD spectrometer (Applied Photophysics, UK). […] All the samples were dissolved in H2O. Each scan was repeated three times using a 2-mm path-length cuvette and averaged. MRE (mean residue ellipticity) was calculated based on the number of amino acid residues.
# [2] = AFM analysis of self-assembled peptide complexes; conditions: for Average diameter (nm) / AFM morphology: Table 12, self-assembled structure; for AFM morphology: 25 μM in distilled water
# Experimental: AFM was performed using an NX10 system (Park Systems, Korea) in a non-contact mode with PPP-NCHR AFM probes (Nanosensors, Switzerland). The DNA concentration ranged from 1 to 30 ng/μL and the peptide concentration ranged from 1 to 32 μM (in H2O). 2 μL of the sample solution was cast onto a freshly cleaved mica surface and dried. The data obtained by the SmartScan program (Park Systems, Korea) was analyzed using the XEI program (Park Systems, Korea).
# The CD spectroscopy was performed in the same manner as in Test Example 2 and the AFM was performed using the NX10 system (Park Systems, Korea) in a non-contact mode with PPP-NCHR AFM probes (Nanosensors, Switzerland). The peptide complex concentration ranged from 1 to 32 μM (in H2O). 2 μL of the sample solution was cast onto a freshly cleaved mica surface and dried. The data obtained by the SmartScan program (Park Systems, Korea) were analyzed using the XEI program (Park Systems, Korea).
# The peptide complexes of Examples 37-40 were imaged by AFM. 25 μM of the peptide complex was dissolved in distilled water, sonicated for 5 minutes, incubated overnight and dropped on mica for measurement.
# [3] = MCD (magnetic circular dichroism) under 1.6 T magnetic field; conditions: magnetic field of 1.6 T applied (MCD)
# Experimental: MCD (magnetic circular dichroism) spectra were obtained using a Jasco-815 159-L spectrophotometer (Jasco, Japan). The concentration of the peptides was 20 μM in distilled water. Measurements were performed using a 2-mm path-length cuvette. The magnetic field of the permanent magnet in the MCD accessory (PM-491) was 1.6 T. Each scan was repeated three times and averaged.
# MCD (magnetic circular dichroism) spectra were obtained using a Jasco-815 159-L spectrophotometer (Jasco, Japan). The concentration of the peptide complex was 20 μM in distilled water. Measurements were performed using a 2-mm path-length cuvette. The magnetic field of the permanent magnet in the MCD accessory (PM-491) was 1.6 T. Each scan was repeated three times and averaged.
# MCD (magnetic circular dichroism) analysis was performed to investigate whether the helical stability of the αm peptide in the peptide complex according to the present disclosure is affected by the magnetic field. The peptide complexes of Examples 47 and 99 have partially stable α-helices. When a magnetic field of 1.6 T was applied to the peptide complexes of Examples 47 and 99 (FIGS. 44d, 44e), the contents of α-helices, i.e. the [θ]222/[6]208 ratios, were increased in both molecules. […]
# [4] = AFM of self-assembly with or without magnetic field
# Experimental: AFM was performed using the NX10 system (Park Systems, Korea) in a non-contact mode with PPP-NCHR AFM probes (Nanosensors, Switzerland). The peptide complex (specimen) dispersed in an aqueous solvent was placed between neodymium magnets and measurements were compared before and after the application of a magnetic field. The magnetic field intensity was measured using a Model 450 gaussmeter (Lake Shore Cryotronics, USA).
# It was confirmed that the peptide complex according to the present disclosure is highly sensitive to a magnetic field and the α-helix structure can be controlled with a magnetic field. It was also investigated whether the self-assembly process of the peptide complex is affected by a magnetic field. The peptide complexes of Examples 51 and 99 were dissolved in aqueous solvents to induce self-assembly. The aqueous solvents were sonicated to prevent aggregation for clear observation. The aqueous solvent was placed in the equipment shown in FIG. 44f and measured by AFM after incubation overnight. The AFM measurement was also made before the treatment for comparison before and after the application of the magnetic field.
# [5] = Table 9, linear and cyclic αm-PEG10 peptide complexes, in H2O
# [6] = in the absence of the magnetic field
Substance,θ222 nm/θ208 nm ratio [1],Average diameter (nm) [2],AFM morphology [2],also measured
"Example 38: peptide complex (Wαm-RGD), SEQ ID NO 38 (L[Aib]L[Aib]L[Aib]L[Aib]LGRGDRGDG)",0.44,50-200 nm,Vesicle,self-assembly behavior in an aqueous solvent ([2]; AFM): spherical particles
"Example 39: peptide complex (Wαm-RGD), SEQ ID NO 39 (A[Aib]A[Aib]A[Aib]A[Aib]A[Aib]A[Aib]A[Aib]AGRGDRGDG)",0.7,20 nm,Micelle,"average diameter ([2]; AFM): 20 nm; self-assembly behavior in an aqueous solvent ([2]; AFM): self-assembled into spherical particles such as micelles; also recorded: micelle particles; average height ([2]; AFM, FIG. 80): 2-4 nm; length of micelle particles ([2]; AFM, FIG. 80): 6-10 nm"
"Example 40: peptide complex (Wαm-RGD), SEQ ID NO 40 (AXAXAXAXAXAXAXAXAXAXAGRGDRGDG; RGD peptides; SITE 2 2-aminoisobutyric acid; SITE 4 2-aminoisobutyric acid; SITE 6 2-aminoisobutyric acid; SITE 8 2-aminoisobutyric acid; SITE 10 2-aminoisobutyric acid; SITE 12 2-aminoisobutyric acid; SITE 14 2-aminoisobutyric acid; SITE 16 2-aminoisobutyric acid; SITE 18 2-aminoisobutyric acid; SITE 20 2-aminoisobutyric acid)",0.99,20-30 nm,Micelle,"α-helix structure (in words) ([1]; from CD spectra): most perfect α-helix structure; average diameter ([2]; AFM): 20 nm; self-assembly behavior in an aqueous solvent ([2]; AFM): self-assembled into spherical particles such as micelles; also recorded: micelle particles; length of micelle particles ([2]; AFM, FIG. 80): 7.2-12.4 nm"
"Example 41: peptide complex (Wαm-RGD, Wαm-GS), SEQ ID NO 41 (A[Aib]A[Aib]A[Aib]A[Aib]A[Aib]A[Aib]A[Aib]A[Aib]A[Aib]A[Aib]AGRGDRGDRGDG)",0.91,20-40 nm,Micelle,–
RAUAUAUAUA(PEG8)2 (RA[Aib]A[Aib]A[Aib]A[Aib]A-{PEG8′-PEG8′-NH2}) [Example 58],0.36,–,Not assembled,–
RAUAUAUAUAUAUAUA(PEG8)2 [Example 59],0.77,160-410 nm,Vesicle,–
RAUAUAUAUAUAUAUAUAUAUAGRGDRGDRGDG [Example 66],0.91,20-30 nm,Micelle,–
RAUAUAUAUAUAUAUAUAUAUARGDRGDRGD [Example 64],1.1,30-40 nm,Micelle,–
RAUAUAUAUAUAUAUAUAUAUARGDRGDRGDRGD [Example 65],0.94,20 nm,Micelle,–
RGDRGDAUAUAUAUAUAUAUAUAUAUAR [Example 70],1.14,50 nm,Vesicle,–
RGDRGDRGDAUAUAUAUAUAUAUAUAUAUAR [Example 71],1.12,50-100 nm,Vesicle,–
RRAUAUAUAUAUAUAUAUAUAUA(PEG8)2 [Example 61],1.13,90-250 nm,Vesicle,–
RRAUAUAUAUAUAUAUAUAUAUAGRGDRGDRGDG (RRA[Aib]A[Aib]A[Aib]A[Aib]A[Aib]A[Aib]A[Aib]A[Aib]A[Aib]A[Aib]AGRGDRGDRGDG) [Example 68],0.89,40-110 nm,Vesicle,–
RRRAUAUAUAUAUAUAUAUAUAUA(PEG8)2 [Example 62],1.08,110-150 nm,Vesicle,–
RRRAUAUAUAUAUAUAUAUAUAUAGRGDRGDRGDG (RRRA[Aib]A[Aib]A[Aib]A[Aib]A[Aib]A[Aib]A[Aib]A[Aib]A[Aib]A[Aib]AGRGDRGDRGDG) [Example 69],0.88,40-260 nm,Vesicle,–
RRRRAUAUAUAUAUAUAUAUAUAUA(PEG8)2 (RRRRAXAXAXAXAXAXAXAXAXAXA; (PEG8)2 C-terminal; SITE 6 2-aminoisobutyric acid; SITE 8 2-aminoisobutyric acid; SITE 10 2-aminoisobutyric acid; SITE 12 2-aminoisobutyric acid; SITE 14 2-aminoisobutyric acid; SITE 16 2-aminoisobutyric acid; SITE 18 2-aminoisobutyric acid; SITE 20 2-aminoisobutyric acid; SITE 22 2-aminoisobutyric acid; SITE 24 2-aminoisobutyric acid) [Example 63],1.03,20-50 nm,Micelle,self-assembly behavior in an aqueous solvent ([2]; AFM): self-assembles into spherical particles
WAUAUAUAUAU(PEG2)5 [Example 47],0.84,–,–,"[θ]222/[θ]208 [1, 5]: 0.84; [6]222/[θ]208 ratio [1]: 0.86; [6]222/[θ]208 ratio [3]: 0.91; self-assembled structure [4, 6]: highly uniform micelle-like spherical self-assembled structures; self-assembled structure ([4]; magnetic field (0.07 T) applied): anisotropic and unique planar nanostructures"
WAUAUAUAUAU(PEG2)5 [Example 99],–,–,–,"[θ]222/[θ]208 [1, 5]: 0.93; [θ]222/[θ]208 ([1]; Table 13, cyclic peptide complexes): 0.93; [6]222/[θ]208 ratio [1]: 0.89; [6]222/[θ]208 ratio [3]: 1.01; self-assembled structure [4, 6]: vesicle-like spherical self-assembled structures; self-assembled structure ([4]; magnetic field (0.25 T) applied): cruciform anisotropic nanostructures"
